Earlier results, collected in PubChem BioAssay AID1259409 (Chemical Carcinogenesis Research Information System (CCRIS), 2018).

System: rodent chemically induced tumor inhibition, incidence and multiplicity
Test: CCRIS tumor inhibitor studies
Details: Dose [Inhibitor]: 0, Species: MOUSE
Description: The CCRIS database contains chemical records with carcinogenicity, mutagenicity, tumor promotion, and tumor inhibition test results. It was developed by the National Cancer Institute (NCI). Data are derived from studies cited in primary journals, current awareness tools, NCI reports, and other sources. Test results have been reviewed by experts in carcinogenesis and mutagenesis.
CCRIS provides historical information from the years 1985 - 2011. It is no longer updated.
This is an archive assay for CCRIS tumor inhibitor studies.

## O=c1c(O)c(-c2cc(O)c(O)c(O)c2)oc2cc(O)ccc12
Carcinogen: (+/-)-7BETA,8ALPHA-DIHYDROXY-9ALPHA,10ALPHA-EPOXY-7,8,9,10-TETRAHYDROBENZO[A]PYR ENE, 58917-67-2, 1400 NMOL (TOTAL DOSE) 10 MIN PRIOR TO CARCINOGEN DOSE INJECTED AS 1/7, 2/7,AND 4/7 OF THE TOTAL ON DAYS 1, 8, AND 15, Route [Inhibitor]: INTRAPERITONEAL, Strain/Sex: ICR/MALE,FEMALE, Target Tissue: Type of Lesion: LUNG: TUMOR, Dose [Carcinogen]: 30 NMOL (TOTAL DOSE) INJECTED IN DOSES OF 1/7, 2/7, AND 4/7 ON DAYS 1,8, AND 15 OF LIFE, RESPECTIVELY, Promoter: NONE USED
  tumour outcome (control, treated, inhibition, significance): 93%, 50%, 46%, p<0.05
Carcinogen: (+/-)-7BETA,8ALPHA-DIHYDROXY-9ALPHA,10ALPHA-EPOXY-7,8,9,10-TETRAHYDROBENZO[A]PYR ENE, 58917-67-2, 1400 NMOL (TOTAL DOSE) APPLIED 10 MIN PRIOR TO CARCINOGEN DOSE INJECTED AS 1/7, 2/7, AND 4/7 OF THE TOTAL ON DAYS 1,, Route [Inhibitor]: INTRAPERITONEAL, Strain/Sex: ICR/MALE,FEMALE, Target Tissue: Type of Lesion: LUNG: TUMOR, Dose [Carcinogen]: 15 NMOL (TOTAL DOSE) INJECTED IN DOSES OF 1/7, 2/7, AND 4/7 ON DAYS 1, 8, AND 15 OF LIFE, RESPECTIVELY, Promoter: NONE USED
  tumour outcome (control, treated, inhibition, significance): 63%, 41%, 35%, p<0.05
Carcinogen: (+/-)-7BETA,8ALPHA-DIHYDROXY-9ALPHA,10ALPHA-EPOXY-7,8,9,10-TETRAHYDROBENZO[A]PYR ENE, 58917-67-2, 2500 NMOL IN 200 µL ACETONE:DMSO (90:10) ONCE APPLIED 5 MIN PRIOR TO CARCINOGEN DOSE (STUDY DURATION: 21 WK), Route [Inhibitor]: DERMAL, Strain/Sex: CD-1/FEMALE, Target Tissue: Type of Lesion: SKIN: TUMOR, Dose [Carcinogen]: 200 NMOL IN ACETONE:DMSO (90:10) ONCE, Promoter: 12-O-TETRADECANOYLPHORBOL-13-ACETATE, 16561-29-8
  tumour outcome (control, treated, inhibition, significance): 59%, 68%, -15%, not significant
Carcinogen: BENZO[A]PYRENE, 50-32-8, 1400 NMOL (TOTAL DOSE) APPLIED 10 MIN PRIOR TO CARCINOGEN DOSE INJECTED AS 1/7, 2/7, AND 4/7 OF THE TOTAL ON DAYS 1,, Route [Inhibitor]: INTRAPERITONEAL, Strain/Sex: ICR/MALE,FEMALE, Target Tissue: Type of Lesion: LUNG: TUMOR, Dose [Carcinogen]: 450 NMOL (TOTAL DOSE) INJECTED IN DOSES OF 1/7, 2/7, AND 4/7 ON DAYS 1, 8, AND 15 OF LIFE, RESPECTIVELY, Promoter: NONE USED
  tumour outcome (control, treated, inhibition, significance): 73%, 79%, -8%, not significant
Carcinogen: BENZO[A]PYRENE, 50-32-8, 2500 NMOL IN 200 µL ACETONE:DMSO (90:10) ONCE APPLIED 5 MIN PRIOR TO CARCINOGEN DOSE (STUDY DURATION: 21 WK), Route [Inhibitor]: DERMAL, Strain/Sex: CD-1/FEMALE, Target Tissue: Type of Lesion: SKIN: TUMOR, Dose [Carcinogen]: 50 NMOL IN ACETONE:DMSO (90:10) ONCE, Promoter: 12-O-TETRADECANOYLPHORBOL-13-ACETATE, 16561-29-8
  tumour outcome (control, treated, inhibition, significance): 50%, 54%, -8%, not significant

## Oc1c(Cl)c(Cl)c(Cl)c(Cl)c1Cl
Carcinogen: N-HYDROXY-2-ACETYLAMINOFLUORENE, 53-95-2, 0.04 UMOL/G BW IN 10 µL/G BW TRIOCTANOIN ONCE 45 MIN PRIOR TO CARCINOGEN DOSE (STUDY DURATION: 10 MO), Route [Inhibitor]: INTRAPERITONEAL, Strain/Sex: B6C3F1/MALE, Target Tissue: Type of Lesion: LIVER: HEPATOMA, Dose [Carcinogen]: 0.06 UMOL/G BW IN 5 µL/G BW OF 80% DMSO, Promoter: NONE USED
  tumour outcome (control, treated, inhibition, significance): 34/34 (100%), 19/33 (58%), 42%, not calculated
Carcinogen: N-HYDROXY-2-ACETYLAMINOFLUORENE, 53-95-2, 0.04 UMOL/G BW IN 10 µL/G BW TRIOCTANOIN ONCE 45 MIN PRIOR TO CARCINOGEN DOSE (STUDY DURATION: 10 MO), Route [Inhibitor]: INTRAPERITONEAL, Strain/Sex: B6C3F1/MALE, Target Tissue: Type of Lesion: LIVER: HEPATOMA, Dose [Carcinogen]: 0.11 UMOL/G BW IN 5 µL/G BW OF 80% DMSO, Promoter: NONE USED
  tumour outcome (control, treated, inhibition, significance): 33/33 (100%), 31/37 (84%), 16%, not calculated
Carcinogen: N-HYDROXY-2-ACETYLAMINOFLUORENE, 53-95-2, 0.04 UMOL/G BW IN 10 µL/G BW TRIOCTANOIN ONCE 45 MIN PRIOR TO CARCINOGEN DOSE (STUDY DURATION: 10 MO), Route [Inhibitor]: INTRAPERITONEAL, Strain/Sex: B6C3F1/MALE, Target Tissue: Type of Lesion: LIVER: HEPATOMA, Dose [Carcinogen]: 0.22 UMOL/G BW IN 5 µL/G BW OF 80% DMSO, Promoter: NONE USED
  tumour outcome (control, treated, inhibition, significance): 39/39 (100%), 31/41 (76%), 24%, not calculated

## CCCCCCCc1ccco1
Carcinogen: BENZO[A]PYRENE, 50-32-8, 25 UMOL IN 0.2 ML COTTONSEED OIL 3/WK FOR 4 WK BEGINNING 1 DAY PRIOR TO FIRST CARCINOGEN DOSE AND TERMINATING 1 DAY A, Route [Inhibitor]: GAVAGE, Strain/Sex: STRAIN-A/FEMALE, Target Tissue: Type of Lesion: FORESTOMACH: TUMOR, Dose [Carcinogen]: 1 MG 2/WK FOR 4 WK, Promoter: NONE USED
  tumour outcome (control, treated, inhibition, significance): 14/17 (82%), 10/15 (66%), 20%, not significant
Carcinogen: BENZO[A]PYRENE, 50-32-8, 25 UMOL IN 0.2 ML COTTONSEED OIL 3/WK FOR 4 WK BEGINNING 1 DAY PRIOR TO FIRST CARCINOGEN DOSE AND TERMINATING 1 DAY A, Route [Inhibitor]: GAVAGE, Strain/Sex: STRAIN-A/FEMALE, Target Tissue: Type of Lesion: LUNG: TUMOR, Dose [Carcinogen]: 1 MG 2/WK FOR 4 WK, Promoter: NONE USED
  tumour outcome (control, treated, inhibition, significance): 17/17 (100%), 15/15 (100%), 0%, not significant
Carcinogen: BENZO[A]PYRENE, 50-32-8, 50 UMOL IN 0.2 ML COTTONSEED OIL 3/WK FOR 4 WK BEGINNING 1 DAY PRIOR TO FIRST CARCINOGEN DOSE AND TERMINATING 1 DAY A, Route [Inhibitor]: GAVAGE, Strain/Sex: STRAIN-A/FEMALE, Target Tissue: Type of Lesion: FORESTOMACH: TUMOR, Dose [Carcinogen]: 1 MG 2/WK FOR 4 WK, Promoter: NONE USED
  tumour outcome (control, treated, inhibition, significance): 14/17 (82%), 9/12 (75%), 8%, not significant
Carcinogen: BENZO[A]PYRENE, 50-32-8, 50 UMOL IN 0.2 ML COTTONSEED OIL 3/WK FOR 4 WK BEGINNING 1 DAY PRIOR TO FIRST CARCINOGEN DOSE AND TERMINATING 1 DAY A, Route [Inhibitor]: GAVAGE, Strain/Sex: STRAIN-A/FEMALE, Target Tissue: Type of Lesion: LUNG: TUMOR, Dose [Carcinogen]: 1 MG 2/WK FOR 4 WK, Promoter: NONE USED
  tumour outcome (control, treated, inhibition, significance): 17/17 (100%), 12/12 (100%), 0%, not significant

## C=C1C/C(=C/C)C(=O)O[C@@H]2CCN3CC=C(COC(=O)[C@@]1(O)CO)[C@H]23
1 MG/KG IN 0.1 M PHOSPHATE BUFFER 5 D/WK FOR 105 WK (STUDY DURATION: 105 EK), Route [Inhibitor]: GAVAGE, Strain/Sex: B6C3F1/MALE, Target Tissue: Type of Lesion: LIVER: HEPATOCELLULAR ADENOMA OR CARCINOMA
  tumour outcome (control, treated, inhibition, significance): 36/50 (72%), 23/50 (46%), 36%, p<0.05
3 MG/KG IN 0.1 M PHOSPHATE BUFFER 5 D/WK FOR 105 WK (STUDY DURATION: 105 WK), Route [Inhibitor]: GAVAGE, Strain/Sex: B6C3F1/FEMALE, Target Tissue: Type of Lesion: LIVER: HEPATOCELLULAR ADENOMA OR CARCINOMA
  tumour outcome (control, treated, inhibition, significance): 16/49 (33%), 0/50 (0%), 100%, p<0.01
